Assays:
squalene synthetase [1] = target: T1, squalene synthetase (Homo sapiens, UniProt P37268); experiment: Squalene synthetase inhibitory activity, human-derived enzyme (HepG2 microsome fraction); format: biochemical; details: 5 uM [1-3H] farnesyl pyrophosphate, 37° C., 45 minutes
T1 construct: endogenous in cells; host or cells: HepG2 (human hepatic carcinoma) cells, microsome fraction
T1 sequence (P37268 1-417): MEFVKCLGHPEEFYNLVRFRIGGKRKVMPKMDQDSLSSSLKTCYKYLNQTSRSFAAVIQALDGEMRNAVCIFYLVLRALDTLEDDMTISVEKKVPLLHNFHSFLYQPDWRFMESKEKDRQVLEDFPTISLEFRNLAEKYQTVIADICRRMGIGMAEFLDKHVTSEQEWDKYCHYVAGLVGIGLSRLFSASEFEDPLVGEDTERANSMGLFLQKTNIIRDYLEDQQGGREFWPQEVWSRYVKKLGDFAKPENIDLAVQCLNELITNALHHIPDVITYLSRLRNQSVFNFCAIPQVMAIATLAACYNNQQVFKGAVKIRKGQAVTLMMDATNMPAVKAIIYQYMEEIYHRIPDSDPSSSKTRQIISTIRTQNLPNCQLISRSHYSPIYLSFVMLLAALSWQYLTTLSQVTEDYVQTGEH
Protocol: (§1) Assay Method of Squalene Synthetase Inhibitory Activity
(§2) The squalene synthetase inhibitory activity was assayed as follows with the enzyme solutions described in the subsequent Experimental Examples 1 and 2.
(§3) More specifically, an enzyme solution (protein content 0.8 ug) prepared in Experimental Example 1 or 2 was added to a solution (total volume 50 μl)) containing 5 uM [1-^3 H] farnesyl pyrophosphate (specific activity 25 uCi/mole), 1 mM NADPH, 5 mM MgCl2, 6 mM glutathione, a 100 mM buffer solution of potassium phosphate (pH 7.4) and a test drug (used as an aqueous solution or a DMSO solution), then the reaction was allowed to proceed at 37° C. for 45 minutes. To the reaction mixture was added 150 μl of a mixture of chloroform and methanol (1:2) to suspend the reaction, followed by adding 50 μl of chloroform and 50 μl of a 3N aqueous solution of sodium hydroxide. 50 μl of the chloroform layer (lower layer) containing the reaction mixture having squalene as the principal component and 3 ml of toluene-based liquid scintillator were mixed, and its radioactivity was determined by means of a liquid scintillation counter.
(§4) The squalene synthetase inhibitory activity was expressed in terms of the concentration inhibiting by 50% the radioactivity taken into the chloroform layer (IC50, molar concentration (M)).
Human hepatic carcinoma cells HepG2 (about 1×10^9 cells) obtained by incubation in a Dulbecco-modified Eagle's medium (37° C. in the presence of 5% CO2) were suspended in 10 ml of an ice-cooled buffer solution [100 mM potassium phosphate buffer (pH 7.4), 30 mM nicotinamide and 2.5 mM MgCl2 ]. The cells were crashed by means of ultrasonication (for 30 seconds, twice). From the sonicate thus obtained, the microsome fraction was obtained by the same procedure as in Experiment Example 1, which was suspended in an ice-cooled 100 mM potassium phosphate buffer (pH 7.4) (about 4 mg/ml protein concentration). This suspension was used as the enzyme solution. The results are shown in [Table 4].

squalene synthetase [2] = target: T2, squalene synthetase (Rattus norvegicus, UniProt Q02769); experiment: Squalene synthetase inhibitory activity, rat-derived enzyme (liver microsome fraction); format: biochemical; details: SD rat liver microsome fraction; 5 uM [1-3H] farnesyl pyrophosphate, 37° C., 45 minutes
T2 construct: from tissue; host or cells: rat liver microsome fraction (SD male rat, 6 weeks old)
T2 sequence (Q02769 1-416): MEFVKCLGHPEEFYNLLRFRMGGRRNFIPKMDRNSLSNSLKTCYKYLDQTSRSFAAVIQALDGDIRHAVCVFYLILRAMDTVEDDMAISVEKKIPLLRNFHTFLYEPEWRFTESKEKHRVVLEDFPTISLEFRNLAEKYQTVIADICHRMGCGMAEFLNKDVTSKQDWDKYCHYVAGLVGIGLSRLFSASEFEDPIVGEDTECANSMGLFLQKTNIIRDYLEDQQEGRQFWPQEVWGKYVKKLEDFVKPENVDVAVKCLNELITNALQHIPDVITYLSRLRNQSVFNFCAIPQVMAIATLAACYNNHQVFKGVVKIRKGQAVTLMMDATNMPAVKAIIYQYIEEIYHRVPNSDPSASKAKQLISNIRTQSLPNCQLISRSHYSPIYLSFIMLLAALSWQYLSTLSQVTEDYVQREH
Protocol: as §1, §2, §3, §4
An SD male rat (6 week old) was killed by bleeding, and its liver was excised. About 10 g of the liver was washed with a saline solution cooled with ice, which was then homogenized in 15 ml of an ice-cooled buffer solution [100 mM potassium phosphate (pH 7.4), 15 mM nicotinamide, 2 mM MgCl2 ], followed by centrifugation for 20 minutes (4° C.) with 10000×g. The supernatant layer was separated and subjected to further centrifugation for 90 minutes (4° C.) at 105000×g. The sediment was then suspended in an ice-cooled 100 mM phosphate buffer solution (pH 7.4), which was again subjected to centrifugation for 90 minutes (4° C.) at 105000×g. The sediment thus obtained (microsome fraction) was suspended in an ice-cooled 100 mM potassium phosphate buffer (pH 7.4) (about 40 mg/ml protein concentration, determined with BCA protein assay kit of Pias Co., Ltd.). This suspension was used as the enzyme solution.

| IC50 (squalene synthetase [1]) [nM] | IC50 (squalene synthetase [2]) [nM] | SMILES |
| --- | --- | --- |
| 39 | 180 | CC(C)(C)CN1C(=O)[C@@H](CC(=O)O)S[C@H](c2ccccc2Cl)c2cc(Cl)ccc21 (relative stereo) [Example 9, 3,5-trans-7-Chloro-5-(2-chlorophenyl)-1-neopentyl-2-oxo-1,2,3,5-tetrahydro-4,1-benzothiazepine-3-acetic acid] |
| 73 | 88 | COc1ccccc1[C@H]1O[C@H](CC(=O)O)C(=O)N(CC(C)(C)C)c2sc(Cl)cc21 (relative stereo) [Example 33, 3,5-trans-7-Chloro-5-(2-methoxyphenyl)-1-neopentyl-2-oxo-1,2,3,5-tetrahydro-4,1-thieno[2,3-e]oxazepine-3-acetic acid] |
| 42 | 62 | CCCN1C(=O)[C@@H](CC(=O)O)S[C@H](c2ccccc2Cl)c2cc(Cl)ccc21 (relative stereo) [Example 10-2] |
| 13 | 22 | CC(C)(C)CN1C(=O)[C@@H](CC(=O)NCC(=O)O)S[C@H](c2ccccc2Cl)c2cc(Cl)ccc21 (relative stereo) [Example 23, N-[3,5-trans-7-Chloro-5-(2-chlorophenyl)-1-neopentyl-2-oxo-1,2,3,5-tetrahydro-4,1-benzothiazepine-3-acetyl]glycine] |
| 10 | 16 | COc1cccc([C@H]2S[C@H](Cc3nnn[nH]3)C(=O)N(CC(C)(C)C)c3ccc(Cl)cc32)c1OC [Example 59, (3R,5S)-7-Chloro-5-(2,3-dimethoxyphenyl)-1-neopentyl-3-(tetrazol-5-yl)methyl-1,2,3,5-tetrahydro-4,1-benzothaizepin-2-one] |
|  | 490 | COc1ccccc1[C@H]1O[C@H](CC(=O)O)C(=O)N(CC(C)C)c2sc(Cl)cc21 (relative stereo) [Example 36, 3,5-trans-7-Chloro-1-isobutyl-5-(2-methoxyphenyl)-2-oxo-1,2,3,5-tetrahydro-4,1-thieno[2,3-e]oxazepine-3-acetic acid] |
|  | 960 | COc1cccc([C@@H]2S[C@@H](CC(=O)O)C(=O)N(CC(C)(C)C)c3ccc(Cl)cc32)c1OC [Example 44, (3S,5R)-7-Chloro-5-(2,3-dimethoxyphenyl)-1-neopentyl-2-oxo-1,2,3,5-tetrahydro-4,1-benzothiazepine-3-acetic acid] |
|  | 700 | CC(C)(C)CN1C(=O)[C@@H](CC(=O)O)[S+]([O-])[C@H](c2ccccc2Cl)c2cc(Cl)ccc21 (relative stereo) [Example 19, 3,5-trans-7-Chloro-5-(2-chlorophenyl)-1-neopentyl-2-oxo-1,2,3,5-tetrahydro-4,1-benzothiazepine-3-acetic acid S-oxide] |
|  | 920 | CN1C(=O)[C@@H](CC(=O)O)S[C@H](c2ccccc2Cl)c2cc(Cl)ccc21 (relative stereo) [Example 10-3] |
| 130 | 290 | CC(C)(C)CN1C(=O)N(CC(=O)O)CC(c2ccccc2Cl)c2cc(Cl)ccc21 (centres unmarked) [Example 53, 7-Chloro-5-(2-chlorophenyl)-1-neopentyl-2-oxo-1,2,4,5-tetrahydro-3H-1,3-benzodiazepine-3-acetic acid] |
| 120 | 390 | CC(C)CN1C(=O)C(CC(=O)O)CC(c2ccccc2Cl)c2cc(Cl)ccc21 (centres unmarked) [Example 26, 7-Chloro-5-(2-chlorophenyl)-1-isobutyl-2-oxo-2,3,4,5-tetrahydro-1H-[1]-benzazepine-3-acetic acid] |
| 2000 |  | COC(=O)C[C@H]1S[C@H](c2ccccc2OC)c2cc(Cl)ccc2N(CC(C)C)C1=O (relative stereo) [Example 8-1, 3,5-trans-7-Chloro-5-(2-methoxyphenyl)-1-isobutyl-2-oxo-1,2,3,5-tetrahydro-4,1-benzothiazepine-3-acetic acid methyl ester] |
|  | > 1000 | COc1ccc([C@@H]2S[C@@H](CC(=O)O)C(=O)N(CC(C)(C)C)c3ccc(Cl)cc32)c(OC)c1 [Example 50, (3S,5R)-7-Chloro-5-(2,4-dimethoxyphenyl)-1-neopentyl-2-oxo-1,2,3,5-tetrahydro-4,1-benzothiazepine-3-acetic acid] |
| 5.9 | 9.3 | COc1cccc([C@H]2S[C@H](CC(=O)O)C(=O)N(CC(C)(C)C)c3ccc(Cl)cc32)c1OC [Example 43, (3R,5S)-7-Chloro-5-(2,3-dimethoxyphenyl)-1-neopentyl-2-oxo-1,2,3,5-tetrahydro-4,1-benzothiazepine-3-acetic acid] |
|  | 460 | CC(C)(C)CN1C(=S)[C@@H](CC(=O)O)O[C@H](c2ccccc2Cl)c2cc(Cl)ccc21 (relative stereo) [Example 28, 3,5-trans-7-Chloro-5-(2-chlorophenyl)-1-neopentyl-1,2,3,4-tetrahydro-2-thioxo-4,1-benzoxazepine-3-acetic acid] |
|  | 3300 | CC(C)(C)CN1C(=O)[C@@H](CC(=O)O)S(=O)(=O)[C@H](c2ccccc2Cl)c2cc(Cl)ccc21 (relative stereo) [Example 21, 3,5-trans-7-Chloro-5-(2-chlorophenyl)-1-neopentyl-2-oxo-1,2,3,5-tetrahydro-4,1-benzothiazepine-3-acetic acid S-dioxide] |
|  | 170 | CC(C)(C)CN1C(=O)[C@@H](CC(=O)O)O[C@H](c2ccccc2Cl)c2cc(Cl)sc21 (relative stereo) [Example 31, 3,5-trans-7-Chloro-5-(2-chlorophenyl)-1-neopentyl-2-oxo-1,2,3,5-tetrahydro-4,1-thieno[2,3-e]benzoxazepine-3-acetic acid] |
|  | 100 | CCN1C(=O)[C@@H](CC(=O)O)S[C@H](c2ccccc2Cl)c2cc(Cl)ccc21 (relative stereo) [Example 10-4] |
|  | > 1000 | COc1ccccc1[C@H]1O[C@@H](CC(=O)O)C(=O)N(CC(C)(C)C)c2sc(Cl)cc21 (relative stereo) [Example 34, 3,5-cis-7-Chloro-5-(2-methoxyphenyl)-1-neopentyl-2-oxo-1,2,3,5-tetrahydro-4,1-thieno[2,3-e]oxazepine-3-acetic acid] |
| 31 | 39 | CCCN1C(=O)[C@@H](CC(=O)O)S[C@H](c2ccccc2OC)c2cc(Cl)ccc21 (relative stereo) [Example 10-6] |

| SMILES | IC50 (squalene synthetase [1]) [nM] | IC50 (squalene synthetase [2]) [nM] |
| --- | --- | --- |
| CC(C)CN1C(=O)[C@@H](CC(=O)O)N[C@H](c2ccccc2Cl)c2cc(Cl)ccc21 [Example 14, (3R,5S)-1-Isobutyl-7-chloro-5-(2-chlorophenyl)-2,3,4,5-tetrahydro-2-oxo-1H-1,4-benzodiazepine-3-acetic acid] | 160 | 430 |
| CC(C)CN1C(=O)[C@@H](CC(=O)O)N=C(c2ccccc2Cl)c2cc(Cl)ccc21 [Example 13, (3R)-1-Isobutyl-7-chloro-5-(2-chlorophenyl)-2,3-dihydro-2-oxo-1H-1,4-benzodiazepine-3-acetic acid] |  | 3900 |

Reference: patent US5698691A, “Condensed cyclic compounds and their use” (Takeda Chemical Industries, Ltd., priority 1993, dated 1997)
